Experimental data reported in patent US8778871B2 (Takeda Pharmaceutical Company Limited, priority 2004, dated 2014).
Starred links: 1 amine or outer side, 2 acyl side, 3 side chain; linkers in the order of their positions; H or OH if unused. Non-standard residues stand in square brackets, D forms with d. Residues, ends and D or L forms follow the SMILES beside them. *: point of attachment. X10 = CNC(=N)NCCC[C@H](NC(=O)[C@H](CC(C)C)NCCN*)C(=O)N[C@@H](Cc1ccccc1)C(N)=O; X8 = O=C([C@H](Cc1ccc2ccccc2n1)N[*:1])[*:2]; Arg(Me) = CNC(=N)NCCC[C@H](N)C(=O)O; d3Pal = N[C@H](Cc1cccnc1)C(=O)O; Cbz = O=C(OCc1ccccc1)*; Hexanoyl = CCCCCC(=O)*; azaGly = NNC(=O)O

target: T1, hOT7T175 (Homo sapiens, UniProt Q969F8); test: Intracellular Ca ion level-increasing activity using FLIPR (180 seconds; specific activity to Metastin (1-54)); assay type: cell-based; conditions: hOT7T175/CHO, change in intracellular calcium ion level for 180 seconds, Tables 21-23
T1 construct: expressed in transfected cells
T1 sequence (Q969F8 whole entry L364H): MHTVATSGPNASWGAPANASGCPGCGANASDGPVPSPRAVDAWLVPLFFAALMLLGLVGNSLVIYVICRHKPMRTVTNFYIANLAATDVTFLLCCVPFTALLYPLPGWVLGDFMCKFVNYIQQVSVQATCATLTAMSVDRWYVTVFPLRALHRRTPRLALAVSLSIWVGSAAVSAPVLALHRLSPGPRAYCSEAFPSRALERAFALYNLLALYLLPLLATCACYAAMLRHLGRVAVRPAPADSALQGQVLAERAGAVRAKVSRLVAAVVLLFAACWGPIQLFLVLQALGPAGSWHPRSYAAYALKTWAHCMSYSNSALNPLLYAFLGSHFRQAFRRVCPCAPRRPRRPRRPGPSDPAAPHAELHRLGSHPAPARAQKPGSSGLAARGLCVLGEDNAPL
Protocol: In accordance with the method described in JPA 2000-312590, the intracellular Ca ion level-increasing activity was measured using FLIPR. […]
The intracellular Ca ion level-increasing activity of the synthetic peptide in hOT7T175/CHO was determined using FLIPR (Molecular Devices, Inc.).
hOT7T175/CHO was subcultured in DMEM supplemented with 10% dialyzed fetal bovine serum (hereinafter abbreviated as dFBS) and provided for the experiment (hereinafter abbreviated as 10% dFBS/DMEM). The hOT7T175/CHO was suspended in 10% dFBS-DMEM in 15×10^4 cells/ml. The suspension was inoculated on a 96-well plate for FLIPR (Black Plate Clear Bottom, Coster, Inc.) at 200 μl each (3.0×10^4 cells/200 μl), followed by incubation at 37° C. overnight in a 5% CO2 incubator. The cells thus incubated were used (hereinafter simply referred to as the cell plate). Then, 21 ml of HANKS/HBSS (9.8 g of HANKS', 0.35 g of sodium hydrogencarbonate, 20 ml of 1M HEPES; after adjusting the pH to 7.4 with 1N sodium hydroxide, the mixture was subjected to sterilization through a filter), 210 μl of […] Probenecid and 210 μl of fetal bovine serum (FBS) were mixed (HANKS/HBSS-Probenecid-FBS).
Furthermore, 2 vials of Fluo3-AM (50 μg/vial) were dissolved in 21 μL of dimethylsulfoxide and 21 μL of 20% Pluronic acid. The resulting solution was added to and mixed with 10 ml of HANKS/HBSS-Probenecid-FBS described above. After the culture medium was removed, the mixture was dispensed onto the cell plate in 100 μl each/well, followed by incubation at 37° C. for an hour in a 5% CO2 incubator (pigment loading). The peptide was dissolved in dimethylsulfoxide in 1×10^−3 M. The peptide solution was diluted with HANKS'/HBSS containing 2.5 mM Probenecid and 0.2% BSA. The dilution was transferred to a 96-well plate for FLIPR (V-Bottom plate, Coster, Inc.) (hereinafter referred to as a sample plate). After completion of the pigment loading onto the cell plate, the cell plate washed 4 times with wash buffer, which was obtained by adding 2.5 mM Probenecid to HANKS'/HBSS, using a plate washer to leave 100 μL of wash buffer after the washing. The cell plate and the sample plate were set in FLIPR and 0.05 ml of a sample from the sample plate was automatically transferred to the cell plate with the FLIPR device to promote the cell response. A change in intracellular calcium ion level for 180 seconds was measured with passage of time.

**Q.** How did the “intracellular Ca ion level-increasing activity [specific activity to Metastin (1-54)]” value turn out when `CNC(=N)NCCC[C@H](NC(=O)[C@H](CC(C)C)NC(=O)NNC(=O)[C@H](Cc1ccccc1)NC(=O)[C@H](CO)NC(=O)[C@H](CC(N)=O)NC(=O)[C@H](Cc1c[nH]c2ccccc12)NC(=O)[C@H](CC(N)=O)NC(=O)[C@H](N)Cc1cccnc1)C(=O)N[C@@H](Cc1ccccc1)C(N)=O` [Compound No. 258, D-Pya(3)-Asn-Trp-Asn-Ser-Phe-AzaGly-Leu-Arg(Me)-Phe-NH2] (H-[d3Pal]NWNSF[azaGly]L[Arg(Me)]F-NH2) was run?
**A.** Its value is 2.

**Q.** How did the “intracellular Ca ion level-increasing activity [specific activity to Metastin (1-54)]” value turn out when “Methylthiocarbamoyl-Sar-D-Tyr-Asn-Trp-Asn-Ser-Phe-Gly-Leu-Arg(Me)-Phe-NH2 [Compound No. 397]” was run?
**A.** Its value is 5.

**Q.** How did the “intracellular Ca ion level-increasing activity [specific activity to Metastin (1-54)]” value turn out when `CNC(=N)NCCC[C@H](NC(=O)[C@H](CC(C)C)NC(=O)NNC(=O)[C@H](Cc1ccccc1)NC(=O)[C@H](CO)NC(=O)[C@H](CC(N)=O)NC(=O)[C@H](Cc1ccc2ccccc2n1)NC(=O)[C@H](CC(N)=O)NC(=O)[C@H](N)Cc1ccc(O)cc1)C(=O)N[C@@H](Cc1ccccc1)C(N)=O` [Compound No. 301, D-Tyr-Asn-Ala(2-Qui)-Asn-Ser-Phe-AzaGly-Leu-Arg(Me)-Phe-NH2] (H-[dY]N[X8]NSF[azaGly]L[Arg(Me)]F-NH2) was run?
**A.** The value was 1.

**Q.** With “n-Hexanoyl-Phe-AzaGly-Leu-Arg(Me)-Trp-NH2 [Compound No. 366]” as the compound, how does the “intracellular Ca ion level-increasing activity [specific activity to Metastin (1-54)]” value read?
**A.** Its value is “⅓”.

**Q.** How did the “intracellular Ca ion level-increasing activity [specific activity to Metastin (1-54)]” value turn out when `CNC(=N)NCCC[C@H](NC(=O)[C@H](CC(C)C)NCCNC(=O)[C@H](Cc1ccccc1)NC(=O)[C@H](CO)NC(=O)[C@H](CC(N)=O)NC(=O)[C@H](Cc1c[nH]c2ccccc12)NC(=O)[C@H](CC(N)=O)NC(=O)[C@H](N)Cc1ccc(O)cc1)C(=O)N[C@@H](Cc1ccccc1)C(N)=O` [Compound No. 307, D-Tyr-Asn-Trp-Asn-Ser-Phe-GlyΨ(CH2NH)Leu-Arg(Me)-Phe-NH2] (H-[dY]NWNSF-X10) was run?
**A.** The value was 1.

**Q.** For “Cyclohexanecarbonyl-Phe-AzaGly-Leu-Arg(Me)-Trp-NH2 [Compound No. 439]”, which “intracellular Ca ion level-increasing activity [specific activity to Metastin (1-54)]” value is on record?
**A.** Its value is 2.

**Q.** “3-Phenylpropionyl-AzaGly-Leu-Arg(Me)-Phe-NH2 [Compound No. 362]” was tested. Which “intracellular Ca ion level-increasing activity [specific activity to Metastin (1-54)]” value did it give?
**A.** The value was 1/10.

**Q.** For `CNC(=N)NCCC[C@H](NC(=O)[C@H](CC(C)C)NC(=O)NNC(=O)[C@H](Cc1ccccc1)NC(=O)[C@H](CO)NC(=O)[C@H](CC(N)=O)NC(=O)[C@H](Cc1c[nH]c2ccccc12)NC(=O)[C@H](CC(N)=O)NC(=O)[C@@H](C)N)C(=O)N[C@@H](Cc1ccccc1)C(N)=O` [Compound No. 259, D-Ala-Asn-Trp-Asn-Ser-Phe-AzaGly-Leu-Arg(Me)-Phe-NH2] (H-[dA]NWNSF[azaGly]L[Arg(Me)]F-NH2), which “intracellular Ca ion level-increasing activity [specific activity to Metastin (1-54)]” value is on record?
**A.** The value was 1.

**Q.** How did the “intracellular Ca ion level-increasing activity [specific activity to Metastin (1-54)]” value turn out when `CCCCCC(=O)N[C@@H](CC(N)=O)C(=O)N[C@@H](CO)C(=O)N[C@@H](Cc1ccccc1)C(=O)NNC(=O)N[C@@H](CC(C)C)C(=O)N[C@@H](CCCNC(=N)NC)C(=O)N[C@@H](Cc1ccccc1)C(N)=O` [Compound No. 277, n-Hexanoyl-Asn-Ser-Phe-AzaGly-Leu-Arg(Me)-Phe-NH2] (Hexanoyl-NSF[azaGly]L[Arg(Me)]F-NH2) was run?
**A.** The value was 2.

**Q.** With “Cbz-F[azaGly]L[Arg(Me)]F-NH2 [Compound No. 348]” as the compound, how does the “intracellular Ca ion level-increasing activity [specific activity to Metastin (1-54)]” value read?
**A.** Its value is “⅕”.

**Q.** How did the “intracellular Ca ion level-increasing activity [specific activity to Metastin (1-54)]” value turn out when `CNC(=N)NCCC[C@H](NC(=O)[C@H](CC(C)C)NC(=O)NNC(=O)[C@H](Cc1ccccc1)NC(=O)[C@H](CO)NC(=O)[C@H](CC(N)=O)NC(=O)[C@H](Cc1ccccc1)NC(=O)[C@H](N)Cc1cccnc1)C(=O)N[C@@H](Cc1ccccc1)C(N)=O` [Compound No. 256, D-Pya(3)-Phe-Asn-Ser-Phe-AzaGly-Leu-Arg(Me)-Phe-NH2] (H-[d3Pal]FNSF[azaGly]L[Arg(Me)]F-NH2) was run?
**A.** The value was 1.

**Q.** For “Ac-F[azaGly]L[Arg(Me)]F-NH2 [Compound No. 346]”, which “intracellular Ca ion level-increasing activity [specific activity to Metastin (1-54)]” value is on record?
**A.** Its value is 2.

**Q.** Which “intracellular Ca ion level-increasing activity [specific activity to Metastin (1-54)]” value does the source give for “Benzoyl-PheΨ(CH2O)Gly-Leu-Arg(Me)-Trp-NH2 [Compound No. 421]” here?
**A.** Its value is “⅓”.
